Biological target: T1, gamma-secretase (Homo sapiens, UniProt P49768)
T1 construct: The assay used a partially purified extract of IMR-32 cell membranes as the gamma-secretase enzyme preparation; endogenous in cells; host or cells: IMR-32 cell membranes (partially purified extract)
Experiment: Gamma-secretase APP enzyme assay (MBP-C125 Swe cleavage at Aβ40 site, sandwich ELISA)
Assay type: biochemical
Details: IMR-32 cell membrane extract as enzyme; MBP-C125swe substrate; 2 h at 37° C; read-out: γAPP
Source text: The gamma-secretase APP enzyme assay was designed to measure the specific proteolytic cleavage of an APP substrate (MBP-C125 Swe fusion protein) at the Aβ40 site. The assay used a partially purified extract of IMR-32 cell membranes as the gamma-secretase enzyme preparation and a recombinant fusion protein containing the C-terminal 125 amino acids of the Swedish variant of the APP (MBP-C125swe) as the substrate. This assay involved two steps beginning with the enzymatic reaction generating a cleavage product that was captured with an immobilized antibody specific for the neo-epitope Aβ40 site. The captured cleavage product was then detected in a sandwich ELISA assay with a biotinylated reporter antibody that is specific to Aβ (17-28). Streptavidin-linked alkaline phosphatase was then added that would generate a fluorescent signal proportional to the amount of cleavage product. This assay was used to discover small molecule inhibitors of gamma-secretase.
Briefly, a 149 mg/ml solution of BIGCHAP detergent was made with water at 42° C. and then rotated for 30 minutes at the same temperature. This warmed solution of BigCHAPS(N,N-Bis(3-D-gluconamidopropyl)cholamide) detergent was used to dissolve Brain Extract Type-V (lipid containing a minimum of 40% phosphatidylethanolamine) from Sigma (St. Louis, Mo.) to a concentration of 8 mg/ml. This solution containing BigCHAPS and lipid at 8 mg/ml is then diluted to 0.53 mg/ml lipid with a pre-warmed solution of Hepes and sodium chloride. This final solution containing Hepes buffer, sodium chloride, BigCHAPS detergent and lipid is used to create working solutions of both gamma-secretase (25 Units) and the MBP-C125 substrate (0.05 mg/ml).
Gamma-secretase was then added to a 96-well micro-titre plate and then incubated with various concentrations of inhibitor for 30 minutes at 37° C. MBPC125 substrate was then added to initiate the reaction that would run for two hours at 37° C. The reaction was quenched with the addition of SDS to a final concentration of 0.1% and then 100 μl of the reaction mixture was transferred to a capture ELISA plate and incubated overnight at 4° C. Detection of the cleavage product was performed using a standard sandwich ELISA assay and quantified using a six point standard curve.

| IC50 [µM] | Compound |
| --- | --- |
| 0.15 to 0.3 | CN(C)C(=O)OC[C@@H]1c2cnn(C(=O)N(C)C)c2CCN1S(=O)(=O)c1ccc(Cl)cc1 [(S)-(5-(4-chlorophenylsulfonyl)-1-(dimethylcarbamoyl)-4,5,6,7-tetrahydro-1H-pyrazolo[4,3-c]pyridin-4-yl)methyl dimethylcarbamate] |
| 0.15 to 0.3 | CN(C)C(=O)OC[C@@H]1c2cn[nH]c2CCN1S(=O)(=O)c1ccc(Cl)cc1 [(S)-(5-(4-chlorophenylsulfonyl)-4,5,6,7-tetrahydro-1H-pyrazolo[4,3-c]pyridin-4-yl)methyl dimethylcarbamate] |
| < 0.05 | CCOC(=O)C1c2cn[nH]c2CC(CC)N1S(=O)(=O)c1ccc(Cl)cc1 (stereo not shown) [ethyl 5-(4-chlorophenylsulfonyl)-6-ethyl-4,5,6,7-tetrahydro-1H-pyrazolo[4,3-c]pyridine-4-carboxylate] |

| Compound | IC50 [µM] |
| --- | --- |
| (4S,6R)-diethyl 5-(4-chlorophenylsulfonyl)-4,5,6,7-tetrahydro-1H-pyrazolo[4,3-c]pyridine-4,6-dicarboxylate | 0.05 to 0.15 |
